Data reported in US20250281478A1, “METHODS FOR PREVENTING OR TREATING KIDNEY DISEASES” (JEAMOON BEIJING CO., LTD., priority 2022, published 2025).

Legend:
[1] = tested on: mice with adenine-induced renal failure; assay: Renal fibrosis by Masson's trichrome staining in adenine-induced renal failure mice; assay type: in vivo, C57BL/6N mice; settings: LY2922470 30 mg/kg/day orally for 2 weeks; 3 weeks of modeling; FIG. 6
Protocol: Mice were modeled and administered drugs as described in Example 3. After two weeks of drug administration, the mice were euthanized, and their kidneys were fixed, sectioned, stained with Masson's trichrome, and analyzed.
Whole-slide scanning was performed using a fully automated digital pathology scanner KF-PRO-120 from Ningbo Jiangfeng Bioinformatics Technology Co., Ltd. Masson-stained images were analyzed using the Area Quantification module in HALO software. The blue staining of collagen fibers was used as the unified criterion for positivity. The images were analyzed, and the percentage of blue-stained collagen fibers in the tissue was calculated.
Statistical analysis was conducted using GraphPad Prism 8.0. Continuous data for each group were expressed as mean+SD. One-way ANOVA was used for multi-group comparisons, and Student's t-test was used for comparisons between two groups. A p-value<0.05 was considered statistically significant. For categorical data, chi-square tests were used for comparisons among groups, and a p-value<0.05 was considered statistically significant.

[2] = tested on: high glucose-induced HK-2 cells; assay: RT-PCR of fibrosis markers in high glucose-induced HK-2 cells; assay type: cell-based, human; settings: 25 mM D-glucose + LY2922470 10, 50, 500 nM, 48 hours, FIG. 8
Protocol: • Group A: Control • Group B: HG (25 mM) • Group C: HG (25 mM)+LY (10 nM) • Group D: HG (25 mM)+LY (50 nM) • Group E: HG (25 mM)+LY (500 nM)
HK-2 cells were cultured in MEM supplemented with 10% FBS and 1% penicillin-streptomycin solution. The HK-2 cells were taken from liquid nitrogen and quickly thawed in a 37° C. water bath, gently agitated to thaw the cryopreservation medium. After thawing, the cell suspension was transferred to a centrifuge tube containing 3 mL of culture medium and centrifuged at 1000 rpm for 5 min at room temperature to collect the cells. The supernatant was discarded. The cell pellet was resuspended in complete medium (10% FBS) and seeded into culture dishes. The cells were gently pipetted to ensure uniform distribution and incubated at 37° C. with 5% CO2 and saturated humidity.
Once cells reached 40%-50% confluency, they were treated according to the grouping described above: Group A received normal HK-2 culture; Group B was treated with 25 mM D-glucose (high glucose); Group C was treated with 25 mM D-glucose and 10 nM LY2922470; Group D was treated with 25 mM D-glucose and 50 nM LY2922470; and Group E was treated with 25 mM D-glucose and 500 nM LY2922470. After 48 hours of culture, samples were collected from each group for RT-PCR analysis.

[3] = tested on: mice with adenine-induced renal failure; assay: Serum creatinine (CREA) in adenine-induced renal failure mice; assay type: in vivo, C57BL/6N mice; settings: for CREA after modeling for 3 weeks (after drug administration for 2 weeks) / CREA after modeling for 1 week (before drug administration): mean ± SD
Protocol: • a) Control group: Fed with adenine-free feed; other procedures were the same as those in the model group. • b) Model group: Fed with feed containing 0.25% adenine for modelling. • c) LY-10 mg/kg group: Model+LY2922470 (10 mg/kg, p.o., QD). • d) LY-30 mg/kg group: Model+LY2922470 (30 mg/kg, p.o., QD). • e) LY-60 mg/kg group: Model+LY2922470 (60 mg/kg, p.o., QD). • f) TAK875 group: Model+TAK875 (30 mg/kg, p.o., QD).
Except for the control group, all other mice were fed with a diet containing 0.25% adenine for modelling. The control group was fed with a normal diet. All mice were allowed free access to food. One week after modeling, each group of mice was administered the respective treatment via oral gavage once daily in the afternoon for two consecutive weeks. The control group and the model group received vehicle under a same condition. The adenine-containing diet was continuously administered for modeling throughout the treatment period until the end of the experiment. The physical condition of the mice was monitored, and body weight was measured and recorded weekly. Blood samples were collected from the orbital venous plexus at 1 week (post-modeling) and 3 weeks (after 2 weeks of treatment). Serum was separated for the measurement of serum creatinine (CRE) and blood urea nitrogen (BUN). At the end of the two-week treatment, renal function of each group was assessed using a TGFR renal function monitoring and smart analysis system. After testing, tissues were collected from the mice to confirm the efficacy of the treatment.
Statistical analyses were performed using GraphPad Prism 8.0 software. Continuous data of each group were expressed as mean+SD. One-way ANOVA was used for multi-group comparisons, and Student's t-test was used for comparisons between two groups. A p-value<0.05 was considered statistically significant. For categorical data, chi-square tests were used to compare between groups, with p<0.05 indicating a statistically significant difference.
Mice were fed a 0.25% adenine-containing diet. After one week, the mice were treated with LY2922470 or TAK875. During the treatment period, the adenine-containing diet was continued for modeling. After three weeks of adenine feeding (i.e., two weeks of drug administration), blood samples were collected from the mice, and serum was isolated for CREA and BUN measurements.

[4] = based on Tables 2 and 3 (CREA and BUN), p.o.

What does the source list for `CC#C[C@@H](CC(=O)O)c1ccc(OCc2ccc(CN3CCCc4cccc(OC)c43)s2)cc1` [LY2922470]?
Collagen deposition (Masson staining) [1]: decreased; Degree of renal fibrosis (Masson staining) [1]: alleviated; Extracellular matrix (ECM) accumulation [1]: inhibited; Expression level of Fibronectin (RT-PCR) compared to the high-glucose group [2]: reduced; Expression level of α-SMA (RT-PCR) compared to the high-glucose group [2]: reduced; CREA level compared with the model group ([3]; LY2922470 30 mg/kg p.o. QD for 2 weeks): significantly decreased; CREA after modeling for 3 weeks (after drug administration for 2 weeks) ([3]; LY2922470 30 mg/kg p.o. QD): 79.67 ± 19.28 µmol/L; CREA level compared with the model group ([3]; LY2922470 60 mg/kg p.o. QD for 2 weeks): significantly decreased; CREA after modeling for 3 weeks (after drug administration for 2 weeks) ([3]; LY2922470 60 mg/kg p.o. QD): 66.47 ± 13.35 µmol/L; Serum CREA level compared with the model group ([3]; LY2922470 at different doses p.o. QD for 2 weeks): reduced; Dose with the best effect (CREA, BUN) [3, 4]: 30 mg/kg/day; Doses with therapeutic efficacy (CREA, BUN) [3, 4]: 30 to 60 mg/kg/day; CREA after modeling for 1 week (before drug administration) ([3]; baseline of the LY2922470 10 mg/kg group): 56.14 ± 13.41 µmol/L; CREA after modeling for 1 week (before drug administration) ([3]; baseline of the LY2922470 30 mg/kg group): 54.85 ± 17.55 µmol/L; CREA after modeling for 1 week (before drug administration) ([3]; baseline of the LY2922470 60 mg/kg group): 57.02 ± 11.90 µmol/L
